Converted amounts (≈) assume the structure as drawn.
Assays:
Influenza A virus = assay: Cytotoxicity against A/WSN/33 strain (an H1N1 subtype) influenza virus in the plaque reduction assay; type: functional
[1] = Inhibitory activity against A/WSN/33 strain (an H1N1 subtype) influenza virus was measured by cell protection assay in MDBK cells; Not active; type: functional, cell-based, Bos taurus
[2] = Inhibitory activity against A/WSN/33 strain (an H1N1 subtype) influenza virus was measured by cell protection assay in MDBK cells; type: functional, cell-based, Bos taurus
[3] = Inhibitory activity against A/WSN/33 strain (an H1N1 subtype) influenza virus was measured by cell protection assay in MDBK cells; Value ranges from 0.2-0.3 ug/mL; type: functional, cell-based, Bos taurus

Structure (SMILES) | CC50 (Influenza A virus) [µg/mL] | EC50 [1] | EC50 [2] [µg/mL] | EC50 [3] [µg/mL]
C[C@@H]1CCC[C@@H]2C[C@@H](NC(=O)c3cc4ccccc4cc3O)CCN21 | > 100 | Not Active |  | 
C[C@@H]1CCC[C@@H]2C[C@@H](NC(=O)c3cc(Cl)ccc3O)CCN21 | > 100 |  | 0.8 (≈ 2.48 µM) | 
C[C@@H]1CCC[C@@H]2C[C@@H](NC(=O)c3c(O)ccc4ccccc34)CCN21 | > 100 | Not Active |  | 
Cc1ccc(O)c(C(=O)N[C@H]2CCN3[C@H](CCC[C@H]3C)C2)c1 | 100 (≈ 331 µM) |  |  | 0.2 (≈ 0.661 µM)
C[C@@H]1CCC[C@@H]2C[C@@H](NC(=O)c3cc(N=[N+]=[N-])ccc3O)CCN21 | > 100 |  | 0.5 (≈ 1.52 µM) | 
C[C@@H]1CCC[C@@H]2C[C@@H](NC(=O)c3cc(C(C)(C)C)ccc3O)CCN21 | 50 (≈ 145 µM) | Not Active |  | 
C[C@@H]1CCC[C@@H]2C[C@@H](NC(=O)c3c(O)cccc3F)CCN21 | > 100 |  | 10 (≈ 32.6 µM) | 
C[C@@H]1CCC[C@@H]2C[C@@H](NC(=O)c3cc(-c4ccccc4)ccc3O)CCN21 | 30 (≈ 82.3 µM) | Not Active |  | 
C[C@@H]1CCC[C@@H]2C[C@@H](NC(=O)c3cc(Cl)c(N=[N+]=[N-])cc3O)CCN21 |  | Not Active |  | 
Cc1cccc(C(=O)N[C@H]2CCN3[C@H](CCC[C@H]3C)C2)c1O | > 100 |  | 8 (≈ 26.5 µM) | 
C[C@@H]1CCC[C@@H]2C[C@@H](NC(=O)c3cc(F)ccc3O)CCN21 | > 100 |  | 0.4 (≈ 1.31 µM) | 
C[C@@H]1CCC[C@@H]2C[C@@H](NC(=O)c3cc(Br)ccc3O)CCN21 | > 100 |  | 0.8 (≈ 2.18 µM) | 
C[C@@H]1CCC[C@@H]2C[C@@H](NC(=O)c3cc(I)ccc3O)CCN21 | 100 (≈ 241 µM) |  | 1 (≈ 2.41 µM) | 
C[C@@H]1CCC[C@@H]2C[C@@H](NC(=O)c3ccccc3O)CCN21 | > 100 |  | 1.6 (≈ 5.55 µM) | 
CC(=O)Nc1ccccc1C(=O)N[C@H]1CCN2[C@H](CCC[C@H]2C)C1 | > 100 | Not Active |  | 
C[C@@H]1CCC[C@@H]2C[C@@H](NC(=O)c3ccc(N)cc3O)CCN21 | > 100 | Not Active |  | 
C[C@@H]1CCC[C@@H]2C[C@@H](NC(=O)c3cc4c(cc3O)C(C)(C)CCC4(C)C)CCN21 | 8 (≈ 20.1 µM) | Not Active |  | 
C=Cc1ccc(O)c(C(=O)N[C@H]2CCN3[C@H](CCC[C@H]3C)C2)c1 | > 100 |  | 2 (≈ 6.36 µM) | 
COc1cc(N)c(Cl)cc1C(=O)N[C@H]1CCN2[C@H](CCC[C@H]2C)C1 | > 100 | Not Active |  | 
C[C@@H]1CCC[C@@H]2C[C@@H](NC(=O)c3cccc(O)c3O)CCN21 | 10 (≈ 32.9 µM) | Not Active |  | 
C[C@@H]1CCC[C@@H]2C[C@@H](NC(=O)c3cc(Cl)cc(Cl)c3O)CCN21 | > 100 |  | 10 (≈ 28 µM) | 
C[C@@H]1CCC[C@@H]2C[C@@H](NC(=O)c3ccc(N)c(Cl)c3)CCN21 |  | Not Active |  | 
C[C@@H]1CCC[C@@H]2C[C@@H](NC(=O)c3ccccc3N)CCN21 | > 100 |  | 5 (≈ 17.4 µM) | 
C[C@@H]1CCC[C@@H]2C[C@@H](NC(=O)c3cc(C(=O)c4ccccc4)ccc3O)CCN21 | > 100 | Not Active |  | 
C[C@@H]1CCC[C@@H]2C[C@@H](NC(=O)c3cc(C(F)(F)F)ccc3O)CCN21 | > 100 | Not Active |  | 
Cc1ccc(C(=O)N[C@H]2CCN3[C@H](CCC[C@H]3C)C2)c(O)c1 | > 100 |  | 4 (≈ 13.2 µM) | 
C[C@@H]1CCC[C@@H]2C[C@@H](NC(=O)c3cc(O)ccc3O)CCN21 | 50 (≈ 164 µM) | Not Active |  | 
COc1ccc(O)c(C(=O)N[C@H]2CCN3[C@H](CCC[C@H]3C)C2)c1 | 100 (≈ 314 µM) |  | 0.6 (≈ 1.88 µM) | 
C[C@@H]1CCC[C@@H]2C[C@@H](NC(=O)c3cc(Cl)c(N)cc3O)CCN21 | > 100 |  | 1 (≈ 2.96 µM) | 

From ChEMBL document CHEMBL1131816, “Novel quinolizidine salicylamide influenza fusion inhibitors” (Bioorg Med Chem Lett, 1999)
